What all share (assay type): biochemical
Assay [1] deals with C-MET (Homo sapiens, UniProt P08581). Kind of assay: Enzymatic kinase assay (ADP-GLO), C-MET. The following applies: 10 μM ATP, poly (Glu4, Tyr1) substrate, 60 min room temperature, luminescence; read-out: Enzymatic assay IC50 (nM) C-MET. The method, then: (§1) This example illustrates an enzymatic assay to determine the inhibitory activity of exemplary compounds of Formula (I) in an aspect of the invention.
All the kinase reactions were performed in 5 μL using tyrosine kinase buffer with 0.2 μg/μL poly (Glu4, Tyr1) substrate, 10 μM ATP, serial dilution of the inhibitor, and incubated at room temperature for 60 min. After the indicated incubation times, 5 μL ADP-GLO™ reagent (Promega, Madison, Wis.) was added to the reactions and the plate was incubated at room temperature for 40 min. […] All 384-well assay plates were read using a GLOMAX™ Discover Microplate Luminometer from Promega (Madison, Wis.). To plot, analyze the data and calculate all kinase reaction biochemical values, both Microsoft Excel and Prism from GraphPad 7 Software (La Jolla, Calif.) were used.
In general terms: ADP-Glo turns the ADP formed in a reaction into a luminescent signal.

The target in assay [2] is T1, AXL (Homo sapiens, UniProt P30530).
T1 sequence (P30530 26-894): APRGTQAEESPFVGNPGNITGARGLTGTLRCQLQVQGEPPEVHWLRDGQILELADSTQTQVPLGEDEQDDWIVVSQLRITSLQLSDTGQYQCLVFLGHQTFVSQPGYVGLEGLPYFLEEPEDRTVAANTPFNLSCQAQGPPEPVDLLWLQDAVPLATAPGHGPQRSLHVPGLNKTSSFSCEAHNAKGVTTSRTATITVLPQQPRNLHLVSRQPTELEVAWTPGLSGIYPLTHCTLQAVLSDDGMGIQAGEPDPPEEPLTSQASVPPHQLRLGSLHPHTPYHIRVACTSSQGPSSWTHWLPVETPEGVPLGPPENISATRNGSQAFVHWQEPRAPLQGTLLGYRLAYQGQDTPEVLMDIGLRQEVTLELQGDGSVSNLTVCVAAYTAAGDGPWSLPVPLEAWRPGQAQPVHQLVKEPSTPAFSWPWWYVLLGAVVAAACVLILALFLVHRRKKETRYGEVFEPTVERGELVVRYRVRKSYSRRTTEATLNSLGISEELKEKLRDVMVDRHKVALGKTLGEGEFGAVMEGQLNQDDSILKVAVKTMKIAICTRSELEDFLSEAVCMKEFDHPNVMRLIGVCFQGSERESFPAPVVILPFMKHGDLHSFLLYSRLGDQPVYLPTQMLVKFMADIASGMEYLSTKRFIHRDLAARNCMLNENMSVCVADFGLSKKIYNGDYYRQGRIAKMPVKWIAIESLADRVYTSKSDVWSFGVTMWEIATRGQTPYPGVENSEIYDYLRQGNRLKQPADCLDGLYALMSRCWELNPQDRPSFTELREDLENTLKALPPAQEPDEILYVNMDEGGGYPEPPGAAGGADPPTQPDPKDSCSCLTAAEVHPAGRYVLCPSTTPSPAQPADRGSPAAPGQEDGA
Put plainly: Enzymatic kinase assay (ADP-GLO), AXL. The conditions noted are these: 10 μM ATP, poly (Glu4, Tyr1) substrate, 60 min room temperature, luminescence. The protocol: as §1
(§2) All the kinase reactions were performed in 5 μL using tyrosine kinase buffer with 0.2 μg/μL poly (Glu4, Tyr1) substrate, 10 μM ATP, serial dilution of the inhibitor, and incubated at room temperature for 60 min. After the indicated incubation times, 5 μL ADP-GLO™ reagent (Promega, Madison, Wis.) was added to the reactions and the plate was incubated at room temperature for 40 min. Then, 10 μL of kinase detection reagent was added and after an incubation time of 40 min, luminescence was recorded and IC50 values were determined (Table 1). All 384-well assay plates were read using a GLOMAX™ Discover Microplate Luminometer from Promega (Madison, Wis.). To plot, analyze the data and calculate all kinase reaction biochemical values, both Microsoft Excel and Prism from GraphPad 7 Software (La Jolla, Calif.) were used.

Assay [3] addresses T2, MER (Homo sapiens, UniProt Q12866).
T2 sequence (Q12866 21-999): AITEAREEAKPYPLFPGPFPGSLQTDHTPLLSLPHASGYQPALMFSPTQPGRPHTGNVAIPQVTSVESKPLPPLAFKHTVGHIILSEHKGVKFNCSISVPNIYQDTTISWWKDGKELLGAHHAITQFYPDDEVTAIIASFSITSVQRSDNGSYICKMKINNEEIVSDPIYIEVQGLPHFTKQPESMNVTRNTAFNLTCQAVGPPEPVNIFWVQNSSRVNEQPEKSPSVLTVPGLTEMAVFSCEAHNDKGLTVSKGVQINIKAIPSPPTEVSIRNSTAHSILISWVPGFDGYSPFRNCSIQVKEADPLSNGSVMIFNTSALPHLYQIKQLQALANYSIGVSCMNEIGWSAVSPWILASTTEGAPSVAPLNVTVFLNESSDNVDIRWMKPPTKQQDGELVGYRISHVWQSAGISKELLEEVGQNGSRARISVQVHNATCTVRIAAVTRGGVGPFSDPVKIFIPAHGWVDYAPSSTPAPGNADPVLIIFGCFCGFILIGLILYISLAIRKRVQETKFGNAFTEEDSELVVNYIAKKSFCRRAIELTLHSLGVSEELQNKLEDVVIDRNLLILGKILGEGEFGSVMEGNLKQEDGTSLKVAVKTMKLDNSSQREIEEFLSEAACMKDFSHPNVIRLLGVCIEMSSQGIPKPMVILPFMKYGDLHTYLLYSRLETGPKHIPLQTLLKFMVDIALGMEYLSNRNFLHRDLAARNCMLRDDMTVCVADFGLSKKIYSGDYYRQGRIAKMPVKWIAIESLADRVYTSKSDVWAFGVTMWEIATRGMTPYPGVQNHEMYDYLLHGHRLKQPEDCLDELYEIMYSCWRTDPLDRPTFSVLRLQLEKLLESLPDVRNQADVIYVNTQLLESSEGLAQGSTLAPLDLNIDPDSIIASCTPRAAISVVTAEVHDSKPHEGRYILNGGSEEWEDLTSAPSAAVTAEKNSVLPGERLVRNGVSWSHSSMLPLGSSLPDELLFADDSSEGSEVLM
Kind of assay: Enzymatic kinase assay (ADP-GLO), MER. The conditions noted are these: 10 μM ATP, poly (Glu4, Tyr1) substrate, 60 min room temperature, luminescence. The protocol:
as §1, §2

Molecules are shown by their SMILES.

IC50 data for nine compounds are collected here from patent US20230257364A1, “PYRIDAZINONE-BASED COMPOUNDS AS AXL, C-MET, AND MER INHIBITORS AND METHODS OF USE THEREOF” (CMG Pharmaceutical Co., Ltd., priority 2022, published 2023).

Chain of C-MET (P08581 25-1390): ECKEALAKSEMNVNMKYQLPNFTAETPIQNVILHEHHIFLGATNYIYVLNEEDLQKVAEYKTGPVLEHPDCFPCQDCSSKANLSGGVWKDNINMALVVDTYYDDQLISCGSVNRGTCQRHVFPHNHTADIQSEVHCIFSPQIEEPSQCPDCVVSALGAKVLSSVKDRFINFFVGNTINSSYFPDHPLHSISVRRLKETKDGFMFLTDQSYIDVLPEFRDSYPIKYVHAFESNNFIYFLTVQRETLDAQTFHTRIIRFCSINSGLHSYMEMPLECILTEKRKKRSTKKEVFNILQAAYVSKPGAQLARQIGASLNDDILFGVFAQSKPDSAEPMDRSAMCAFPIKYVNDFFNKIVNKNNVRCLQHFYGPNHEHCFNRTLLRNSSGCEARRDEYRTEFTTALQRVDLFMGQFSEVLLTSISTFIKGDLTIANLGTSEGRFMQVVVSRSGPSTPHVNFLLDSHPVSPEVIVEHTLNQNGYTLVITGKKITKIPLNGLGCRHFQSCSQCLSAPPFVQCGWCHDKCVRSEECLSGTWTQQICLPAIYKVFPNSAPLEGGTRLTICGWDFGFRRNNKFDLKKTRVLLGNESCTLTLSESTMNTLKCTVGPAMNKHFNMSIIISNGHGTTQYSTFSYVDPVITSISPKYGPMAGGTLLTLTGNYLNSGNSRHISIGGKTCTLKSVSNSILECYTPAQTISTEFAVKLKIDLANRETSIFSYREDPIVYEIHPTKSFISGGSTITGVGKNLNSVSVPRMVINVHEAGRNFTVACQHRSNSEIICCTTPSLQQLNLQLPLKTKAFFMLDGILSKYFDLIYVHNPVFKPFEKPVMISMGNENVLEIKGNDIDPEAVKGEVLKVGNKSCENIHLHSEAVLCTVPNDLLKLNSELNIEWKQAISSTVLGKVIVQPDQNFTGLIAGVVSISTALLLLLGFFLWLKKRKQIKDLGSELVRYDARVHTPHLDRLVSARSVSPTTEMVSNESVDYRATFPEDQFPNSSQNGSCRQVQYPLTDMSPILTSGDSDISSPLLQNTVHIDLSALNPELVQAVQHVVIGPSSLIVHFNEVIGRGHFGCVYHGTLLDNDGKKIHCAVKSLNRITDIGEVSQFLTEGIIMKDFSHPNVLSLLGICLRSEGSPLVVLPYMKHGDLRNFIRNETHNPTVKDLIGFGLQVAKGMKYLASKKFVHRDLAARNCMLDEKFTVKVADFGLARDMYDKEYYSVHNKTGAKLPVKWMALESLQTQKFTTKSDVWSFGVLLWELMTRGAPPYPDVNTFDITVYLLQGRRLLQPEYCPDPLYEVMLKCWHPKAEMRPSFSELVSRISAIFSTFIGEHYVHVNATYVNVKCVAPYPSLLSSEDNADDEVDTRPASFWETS

On to `Nc1nccc(Oc2ccc(NC(=O)c3ccnn(-c4ccc(F)cc4)c3=O)cc2F)c1Cl` [Example 1, N-(4-(2-amino-3-chloropyridin-4-yloxy)-3-fluorophenyl)-2-(4-fluorophenyl)-3-oxo-2,3-dihydropyridazine-4-carboxamide], for which the concentration for half-maximal inhibition (IC50) in assay [1], in assay [2] and in assay [3] was less than 1000 nM in each case.

As to `Nc1nccc(Oc2ccc(NC(=O)c3ccnn(-c4ccc(F)cc4)c3=O)cc2F)c1C#CC(=O)N1CCOCC1` [Example 2, N-(4-(2-amino-3-(3-morpholino-3-oxoprop-1-ynyl)pyridin-4-yloxy)-3-fluorophenyl)-2-(4-fluorophenyl)-3-oxo-2,3-dihydropyridazine-4-carboxamide], the concentration for half-maximal inhibition (IC50) in assay [1] was less than 1000 nM; in assay [2], less than 100 nM; in assay [3], less than 10 nM.

With `Nc1nccc(Oc2ccc(NC(=O)c3ccnn(-c4ccc(F)cc4)c3=O)cc2F)c1C#CCN1CCOCC1` [Example 3, N-(4-(2-amino-3-(morpholinoprop-1-ynyl)pyridine-4-yloxy)-3-fluorophenyl)-2-(4-fluorophenyl)-3-oxo-2,3-dihydropyridazine-4-carboxamide], the IC50 in assay [1], in assay [2] and in assay [3] was less than 1000 nM in each case.

Turning to `Nc1nccc(Oc2ccc(NC(=O)c3ccnn(-c4ccc(F)cc4)c3=O)cc2F)c1/C=C/C(=O)N1CCOCC1` [Example 4, (E)-N-(4-(2-amino-3-(3-morpholino-3-oxoprop-1-enyl)pyridine-4-yloxy)-3-fluorophenyl)-2-(4-fluorophenyl)-3-oxo-2,3-dihydropyridazine-4-carboxamide], the half-maximal inhibitory concentration (IC50) in assay [1] was less than 100 nM; in assay [2], less than 1000 nM; in assay [3], less than 100 nM.

As for `N#Cc1c(Oc2ccc(NC(=O)c3ccnn(-c4ccc(F)cc4)c3=O)cc2F)ccnc1N` [Example 5], the 50% inhibitory concentration (IC50) in assay [1] is less than 10 nM; in assay [2] it was less than 100 nM; in assay [3], less than 1000 nM.

Take `Nc1nccc(Oc2ccc(NC(=O)c3ccnn(-c4ccc(F)cc4)c3=O)cc2F)c1C#CCN1CCNCC1` [Example 6, N-(4-(2-amino-3-(3-(piperazin-1-yl)prop-1-ynyl)pyridin-4-yloxy)-3-fluorophenyl)-2-(4-fluorophenyl)-3-oxo-2,3-dihydropyridazine-4-carboxamide]: the IC50 in assay [1], in assay [2] and in assay [3] was less than 1000 nM each time.

`Nc1nccc(Oc2ccc(NC(=O)c3ccnn(-c4ccc(F)cc4)c3=O)cc2F)c1/C=C/C(=O)N1CCNCC1` [Example 7, (E)-N-(4-(2-amino-3-(3-oxo-3-(piperazin-1-yl)prop-1-enyl)pyridin-4-yloxy)-3-fluorophenyl)-2-(4-fluorophenyl)-3-oxo-2,3-dihydropyridazine-4-carboxamide]: the IC50 in assay [1], in assay [2] and in assay [3] was less than 1000 nM in each case.

Regarding `Nc1nccc(Oc2ccc(NC(=O)c3ccnn(-c4ccc(F)cc4)c3=O)cc2F)c1C#CCCN1CCOCC1` [Example 8, N-(4-(2-amino-3-(4-morpholinobut-1-ynyl)pyridin-4-yloxy)-3-fluorophenyl)-2-(4-fluorophenyl)-3-oxo-2,3-dihydropyridazine-4-carboxamide], the figures for the IC50 in assay [1], in assay [2] and in assay [3] were less than 1000 nM, less than 100 nM and less than 1000 nM, respectively.

Regarding `Nc1nccc(Oc2ccc(NC(=O)c3ccnn(-c4ccc(F)cc4)c3=O)cc2F)c1C#CC(=O)N1CCC(O)CC1` [Example 9, N-(4-(2-amino-3-(3-(4-hydroxypiperidin-1-yl)-3-oxoprop-1-ynyl)pyridin-4-yloxy)-3-fluorophenyl)-2-(4-fluorophenyl)-3-oxo-2,3-dihydropyridazine-4-carboxamide], the IC50 in assay [1] was less than 100 nM; in assay [2], less than 10 nM; in assay [3] it was less than 100 nM.

Broadly, the IC50 is the concentration that inhibits the measured activity by half.
